By Ki is commonly meant a measure of affinity in units of concentration, obtained from inhibition or displacement. Low values mean tighter binding, high ones weaker binding. Usually Kd stands for a measure of binding affinity in units of concentration.

Data on 2 compounds can be found in publication PMC4551560, “Metabolic profiling of ligands for the chemokine receptor CXCR3 by liquid chromatography-mass spectrometry coupled to bioaffinity assessment” (Analytical and Bioanalytical Chemistry, 2015).

In assay [1] the target is T1, CXCR3 (Homo sapiens, UniProt P49682).
T1 construct: human CXCR3 in HEK293/CXCR3 membranes
T1 sequence (P49682 1-368): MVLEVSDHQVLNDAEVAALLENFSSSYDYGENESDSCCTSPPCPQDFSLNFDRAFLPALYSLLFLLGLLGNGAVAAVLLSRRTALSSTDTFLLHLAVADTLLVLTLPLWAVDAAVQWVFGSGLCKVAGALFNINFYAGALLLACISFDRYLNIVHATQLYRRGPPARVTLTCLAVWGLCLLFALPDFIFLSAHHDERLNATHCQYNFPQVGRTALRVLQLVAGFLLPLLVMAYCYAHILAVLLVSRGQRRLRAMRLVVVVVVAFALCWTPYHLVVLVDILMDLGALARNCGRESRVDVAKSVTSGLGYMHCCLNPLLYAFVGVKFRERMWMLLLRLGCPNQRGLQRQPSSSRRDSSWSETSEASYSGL
In words: [3H]-VUF11211 radioligand displacement after LC nanofractionation, HEK293/CXCR3 membranes. It is filed as binding. Background: Displacement assays read how much labelled ligand stays bound in the presence of the test substance.

The target in assay [2] is T1, CXCR3. In words: [3H]-VUF11211 radioligand displacement after LC nanofractionation, HEK293/CXCR3 membranes; […]-CXCL10 displacement also shown. It is filed as binding.

Take `CCOc1ccc(-n2c([C@@H](C)N(Cc3cccnc3)C(=O)Cc3ccc(F)c(C(F)(F)F)c3)nc3ncccc3c2=O)cc1` [NBI-74330]: the affinity on CXCR3 [1], expressed as Ki, was 12.6 nM.
In turn, `CCNC(=O)c1cnc(N2CCN(C3CCN(Cc4ccc(Cl)cc4)CC3)[C@@H](CC)C2)c(Cl)c1` [VUF11211] had a Kd on CXCR3 [2] of 0.501 nM.
